Tested on: Monocotyledonous and dicotyledonous test plants
Experiment: Post-emergence herbicidal action
Format: in vivo
Conditions: evaluated after approximately 18 days; for Post-emergence action, Ipomoea / Post-emergence action, Lolium / Post-emergence action, Setaria / Post-emergence action, Sinapis / Post-emergence action, Solanum / Post-emergence action, Stellaria: 2000 g/ha, sprayed in 4- to 6-leaf stage, nine-step scale; for Post-emergence action: Abutilon (score, nine-step scale) / Post-emergence action: Chenop. (score, nine-step scale) / Post-emergence action: Digitaria (score, nine-step scale) / Post-emergence action: Echino. (score, nine-step scale) / Post-emergence action: Ipopur. (score, nine-step scale) / Post-emergence action: Panicum (score, nine-step scale) / Post-emergence action: Xanth. (score, nine-step scale): 250 g/ha, sprayed at 4- to 6-leaf stage
Method: Monocotyledonous and dicotyledonous test plants are grown in the greenhouse in plastic pots containing standard soil, and, in the 4- to 6-leaf stage, sprayed with an aqueous suspension of the test substances of the formula I prepared with a 25% wettable powder (Example F3, b) in accordance with WO 97/34485) or with an emulsion of the test substances of the formula I prepared with a 25% emulsion concentrate (Example F1, c) in accordance with WO 97/34485), corresponding to a rate of 2 kg of a.i./ha or 250 g of a.i./ha (500 l of water/ha). The test plants are subsequently grown on in the greenhouse under optimal conditions. After a test period of approximately 18 days, the test is evaluated with reference to a nine-step scale (1=complete damage, 9=no effect). Score figures of 1 to 4 (in particular 1 to 3) mean a good to very good herbicidal action. In this test, the compounds of the formula I show a potent herbicidal action.

SMILES | Post-emergence action, Ipomoea | Post-emergence action, Lolium | Post-emergence action, Setaria | Post-emergence action, Sinapis | Post-emergence action, Solanum | Post-emergence action, Stellaria | Post-emergence action: Abutilon (score, nine-step scale) | Post-emergence action: Chenop. (score, nine-step scale) | Post-emergence action: Digitaria (score, nine-step scale) | Post-emergence action: Echino. (score, nine-step scale) | Post-emergence action: Ipopur. (score, nine-step scale) | Post-emergence action: Panicum (score, nine-step scale) | Post-emergence action: Xanth. (score, nine-step scale)
Cc1nc(C(F)(F)F)ccc1C(=O)C1=C(O)C(C(C)C)CCC1=O (centres unmarked) [Compound A2-B5] | 1 | 2 | 2 | 1 | 2 | 2 |  |  |  |  |  |  | 
CSC1(C)CCC(=O)C(C(=O)c2ccc(C(F)(F)F)nc2C)=C1O (centres unmarked) [Compound A2-B29] | 2 | 3 | 2 | 1 | 2 | 2 |  |  |  |  |  |  | 
CCCC1(C)CC(C)C(=O)C(C(=O)c2ccc(C(F)(F)F)nc2C)=C1O (centres unmarked) [Compound A2-B70] | 3 | 4 | 3 | 1 | 2 | 2 |  |  |  |  |  |  | 
CCC1(CC)CCC(=O)C(C(=O)c2ccc(C(F)(F)F)nc2C)=C1O [Compound A2-B112] | 2 | 3 | 2 | 1 | 2 | 2 |  |  |  |  |  |  | 
Cc1nc(C(F)(F)F)ccc1C(=O)C1=C(O)CC(c2ccccc2)CC1=O (centres unmarked) [Compound A2-B1058] | 1 | 2 | 4 | 1 | 2 | 2 |  |  |  |  |  |  | 
Cc1nc(C(F)(F)F)ccc1C(=O)C1=C(O)CC(C)(C(F)(F)F)CC1=O (centres unmarked) [Compound A2-B1066] | 1 | 3 | 2 | 1 | 2 | 2 |  |  |  |  |  |  | 
COC(=O)C1(C)C(O)=C(C(=O)c2ccc(C(F)(F)F)nc2C)C(=O)CC1(C)C (centres unmarked) [Compound A2-B1087] | 1 | 4 | 3 | 1 | 2 | 2 |  |  |  |  |  |  | 
CCSC1(CC)CC(C)C(=O)C(C(=O)c2ccc(C(F)(F)F)nc2C)=C1O (centres unmarked) [Compound A2-B1091] |  |  |  |  |  |  | 3 | 3 | 4 | 2 | 3 | 4 | 4
CCC1(CC)CC(C)C(=O)C(C(=O)c2ccc(C(F)(F)F)nc2C)=C1O (centres unmarked) [Compound A2-B1093] | 2 | 2 | 2 | 1 | 2 | 2 |  |  |  |  |  |  | 
COC(=O)C1C(O)=C(C(=O)c2ccc(C(F)(F)F)nc2C)C(=O)CC1(C)C (centres unmarked) [Compound A2-B1094] |  |  |  |  |  |  | 3 | 2 | 3 | 2 | 3 | 2 | 3
CCN(CC)CC.Cc1nc(C(F)(F)F)ccc1C(=O)C1=C(O)CC(C)CC1=O (centres unmarked) [Compound A2-B1101] | 2 | 2 | 2 | 1 | 1 | 3 |  |  |  |  |  |  | 
Cc1nc(C(F)(F)F)ccc1C(=O)C1=C(O)CCC2(CCCCCC2)C1=O [Compound A2-C149] | 1 | 3 | 2 | 1 | 2 | 2 |  |  |  |  |  |  | 
Cc1nc(C(F)(F)F)ccc1C(=O)C1=C(O)C2CC2C(C)([S+](C)[O-])C1=O (centres unmarked) [Compound A2-D114, 5-Hydroxy-2-methanesulfinyl-2-methyl-4-(2-methyl-6-trifluoromethylpyridine-3-carbonyl)bicyclo[4.1.0]hept-4-en-3-one] | 2 | 1 | 1 | 1 | 1 | 1 |  |  |  |  |  |  | 
Cc1nc(C(F)(F)F)ccc1C(=O)C1=C(O)CCC2(CCOC2=O)C1=O (centres unmarked) [Compound A2-E16] | 2 | 3 | 2 | 2 | 2 | 2 |  |  |  |  |  |  | 
CC1=CCCC(O)=C(C(=O)c2ccc(C(F)(F)F)nc2C)C1=O [Compound A2-F5, 3-Hydroxy-7-methyl-2-(2-methyl-6-trifluoromethyloyridine-3-carbonyl)cyclohepta-2,6-dienone] |  |  |  |  |  |  | 3 | 3 | 3 | 3 | 4 | 3 | 3
CC1(C)CCC(=O)C(C(=O)c2ccc(C(F)(F)F)nc2C2CC2)=C1O [Compound A6-B24] | 1 | 3 | 2 | 1 | 1 | 2 |  |  |  |  |  |  | 
CCCc1nc(C(F)(F)F)ccc1C(=O)C1=C(O)C(C)(C)CCC1=O [Compound A7-B24] | 1 | 2 | 2 | 1 | 2 | 2 |  |  |  |  |  |  | 
COCc1nc(C(F)(F)F)ccc1C(=O)C1=C(O)CC(C)CC1=O (centres unmarked) [Compound A8-B133] | 2 | 4 | 2 | 1 | 2 | 2 |  |  |  |  |  |  | 
COCc1nc(C(F)(F)F)ccc1C(=O)C1=C(O)C(C)C(C)CC1=O (centres unmarked) [Compound A8-B134] |  |  |  |  |  |  | 2 | 2 | 3 | 3 | 3 | 3 | 3
COCc1nc(C(F)(F)F)ccc1C(=O)C1=C(O)CC2CCCC2C1=O (centres unmarked) [Compound A8-D36] |  |  |  |  |  |  | 2 | 2 | 3 | 2 | 3 | 3 | 3

Source: US6673938B1, “Substituted pyridine herbicides” (Syngenta Participations AG, priority 1998, dated 2004)
